Experimental data: patent publication US5407918A, “16-membered macrolide derivatives and process for producing the same” (Meiji Seika Kaisha, Ltd., priority 1992, dated 1995)
Converted amounts (≈) assume the structure as drawn. Where two headings read alike, the source gives them in different places.

Tests used:
[1] = mice; EP-A-560,147; cited from earlier work
[2] = test system: some bacteria belonging to the genus Streptococcus or Branhamella; settings: cited from earlier work
esterase = settings: EP-A-560,147 derivatives; cited from earlier work
B. catarrhalis W-0500 = experiment: MIC, agar plate dilution method; format: cell-based; settings: Moraxella catarrhalis, W0500, 37° C., 20 hours, read-out: Antimicrobial activity (MIC)
Method: (§1) Antimicrobial activities of the compounds of the present invention were determined by measuring minimum inhibitory concentration (MIC). Minimum inhibitory concentration was determined by the agar plate dilution method in the following manner.
(§2) Test strains were subjected to seed culture using Sensitivity test broth (STB, Nissui Pharmaceutical) except that the strains belonging to the genus Streptococcus, Branhamella and Haemophilus were cultured on blood agar plate. A 5 μl portion of cell suspension of the test strains having about 10^6 CFU/ml was inoculated into Sensitivity disk agar (SDA, Nissui Pharmaceutical) supplemented with 5% horse blood and incubated at 37° C. for 20 hours. Then, MIC was measured. For comparison, MDM and leucomycin A7 (LM-A7) was also tested.

B. catarrhalis W-0506 = experiment: MIC, agar plate dilution method; format: cell-based; settings: Moraxella catarrhalis, W0506, 37° C., 20 hours, read-out: Antimicrobial activity (MIC)
Method: as §1, §2

E. coli NIHJ JC-2 = experiment: MIC, agar plate dilution method; format: cell-based; settings: Escherichia coli, NIHJJC2; E. coli NIHJ JC-2; 37° C., 20 hours; read-out: Antimicrobial activity (MIC)
Method: as §1, §2

E. faecalis W-73 = experiment: MIC, agar plate dilution method; format: cell-based; settings: Enterococcus faecalis, W73; E. faecalis W-73; 37° C., 20 hours; read-out: Antimicrobial activity (MIC)
Method: as §1, §2

H. influenzae 9334 = experiment: MIC, agar plate dilution method; format: cell-based; settings: Haemophilus influenzae; H. influenzae 9334; 37° C., 20 hours; read-out: Antimicrobial activity (MIC)
Method: as §1, §2

K. pneumoniae PC1602 = experiment: MIC, agar plate dilution method; format: cell-based; settings: Klebsiella pneumoniae, 37° C., 20 hours, read-out: Antimicrobial activity (MIC)
Method: as §1, §2

M. luteus ATCC9341 = experiment: MIC, agar plate dilution method; format: cell-based; settings: Micrococcus luteus, read-out: Antimicrobial activity (MIC)
Method: as §1, §2

M. pneumoniae FH-P24 = experiment: MIC, agar plate dilution method; format: cell-based; settings: Mycoplasmoides pneumoniae, FHP24, 20 h, read-out: Antimicrobial activity (MIC)
Method: as §1, §2

M. pneumoniae FH = experiment: MIC, agar plate dilution method; format: cell-based; settings: Mycoplasmoides pneumoniae, 20 h, read-out: Antimicrobial activity (MIC)
Method: as §1, §2

M. pneumoniae Mac = experiment: MIC, agar plate dilution method; format: cell-based; settings: Mycoplasmoides pneumoniae, 20 h, read-out: Antimicrobial activity (MIC)
Method: as §1, §2

M. pneumoniae Numata = experiment: MIC, agar plate dilution method; format: cell-based; settings: Mycoplasmoides pneumoniae, 20 h, read-out: Antimicrobial activity (MIC)
Method: as §1, §2

S. Pneumoniae Type 1 = experiment: MIC, agar plate dilution method; format: cell-based; settings: Streptococcus pneumoniae; S. Pneumoniae Type 1; 37° C., 20 hours; read-out: Antimicrobial activity (MIC)
Method: as §1, §2

S. Pyogenes Cook = experiment: MIC, agar plate dilution method; format: cell-based; settings: Streptococcus pyogenes, 37° C., 20 hours, read-out: Antimicrobial activity (MIC)
Method: as §1, §2

S. aureus 209P JC-1 = experiment: MIC, agar plate dilution method; format: cell-based; settings: Staphylococcus aureus; S. aureus 209P JC-1; 37° C., 20 hours; read-out: Antimicrobial activity (MIC)
Method: as §1, §2

S. aureus M126 = experiment: MIC, agar plate dilution method; format: cell-based; settings: Staphylococcus aureus; S. aureus M126; 37° C., 20 hours; read-out: Antimicrobial activity (MIC)
Method: as §1, §2

S. aureus M133 = experiment: MIC, agar plate dilution method; format: cell-based; settings: Staphylococcus aureus, 37° C., 20 hours, read-out: Antimicrobial activity (MIC)
Method: as §1, §2

S. aureus MS15009/pMS98 = experiment: MIC, agar plate dilution method; format: cell-based; settings: Staphylococcus aureus, MS15009/PMS98, 20 h, read-out: Antimicrobial activity (MIC)
Method: as §1, §2

S. aureus MS15009/pMS99 = experiment: MIC, agar plate dilution method; format: cell-based; settings: Staphylococcus aureus, MS15009/PMS99, 20 h, read-out: Antimicrobial activity (MIC)
Method: as §1, §2

S. aureus MS15026 = experiment: MIC, agar plate dilution method; format: cell-based; settings: Staphylococcus aureus, 37° C., 20 hours, read-out: Antimicrobial activity (MIC)
Method: as §1, §2

S. aureus MS15027 = experiment: MIC, agar plate dilution method; format: cell-based; settings: Staphylococcus aureus, 37° C., 20 hours, read-out: Antimicrobial activity (MIC)
Method: as §1, §2

S. epidermidis ATCC14990 = experiment: MIC, agar plate dilution method; format: cell-based; settings: Staphylococcus epidermidis, 37° C., 20 hours, read-out: Antimicrobial activity (MIC)
Method: as §1, §2

S. pneumoniae IP692 = experiment: MIC, agar plate dilution method; format: cell-based; settings: Streptococcus pneumoniae, read-out: Antimicrobial activity (MIC)
Method: as §1, §2

[3] = test system: Gram-positive bacteria and Mycoplasma; experiment: antimicrobial activity in vitro (summary in words); format: cell-based; settings: from Table 1
Method: as §1, §2

metabolism in plasma = format: in vitro ADME, rat; settings: no free hydroxyl group in the neutral sugar moiety formed
Method: Each test compound and 50 μl of a methanol solution (10,000 γ) were added to 950 μl of thawed rat plasma and the resulting mixture was incubated at 37° C. for 24 hours. After completion of the incubation, a 20 μl portion of the mixture was added to 980 μl of 0.05M phosphate buffer (pH 7.6). A 20 μl portion of the sample solution was used to measure antimicrobial activity against M. luteus. Separately, the calibration curve was prepared by using a methanol solution containing each test compound. The starting activity of each compound in the plasma was referred to as 100%.

[4] = concentration in serum after oral administration to mice, bioassay; format: in vivo, mice (Jcl:ICR); settings: mouse, serum, 200 mg/kg, M. luteus bioassay, read-out: maximum concentration in the serum
Method: The compound (3) was mixed with a 0.2% solution of carboxymethylcellulose to give a concentration of 4 mg/ml and a 1 ml portion of the resulting emulsion was orally administered to 4-week-old male Jcl:ICR mice. Blood was collected from armpit of the mice 30, 60, 120, 240 and 360 minutes after the administration of the test compound (n=2). The collected blood was allowed to stand at room temperature for about 2 hours and centrifuged for 20 minutes with a centrifuge (KUBOTA KS-5000P) to obtain serum. To the serum was added an equivalent volume of 50% CH3 CN-50 mM phosphate (1:1 by volume) buffer (pH 7.0). The resulting mixture served as a serum sample. The concentration of the test compound in the serum sample was measured by the following bioassay method.
One hundred […] of the serum sample was poured into a hole made on a test plate containing 40 ml of MRAPJ medium (6 g/l peptone, 3 g/l yeast extract, 1.5 g/l meat extract, 1 g/l glucose and 15 g/l agar, pH 6.5) supplemented with a solution of M. Iuteus ATCC9341 (1%) and incubated at 32° C. for 18 hours and MIC was measured based on the calibration curve. MOM, MDM and RKM were also tested for comparison. […] Thus a long-pending problem of "low concentration in serum" of 16-membered macrolide antibiotics has been solved. […] Thus this compound is considered as a macrolide derivative showing new pharmacokinetics.
Further, a pharmacokinetics test on the compound (12) of the present invention is carried out in the same manner as described above. Namely, 200 mg/kg of the compound (12) is orally administered to mice and the concentration of this compound in the serum is determined by a bioassay method with the use of M. luteus as a test strain. […] The disadvantage of 16-membered ring macrolide antibiotics, which has been pointed out for a long time, has been thus overcome.

[5] = recovery in urine after oral administration to mice, bioassay; format: in vivo; settings: mouse, 200 mg/kg oral (compound (3)), urine 4 and 24 hours
Method: Subsequently, 200 mg/kg of the compound (3) was orally administered to three mice in the same manner as described above.
The three mice were put in a metabolic cage MM type (Sugiyamagen Company, Tokyo, Japan) and urine was collected 4 and 24 hours after the administration of the test compound. The collected urine was filtered through a filter having a pore size of 0.45 μm (Millipore) and was mixed with an equivalent volume of 50% CH3CN-50 mM phosphate (1:1 by volume) buffer (pH 6.5) to serve as a urine sample. The bioassay was carried out in the same manner as described above to determine the concentration of the test compound in the urine sample. The recovering in the urine was calculated according to the following equation. [formula]

[6] = pharmacokinetics of midecamycins after oral administration to mice; format: in vivo
Source text: First, the present inventors discussed effects of a difference in the structure at the 9-position among midecamycin analogues, from among 16-membered macrolide compounds, on pharmacokinetics. That is to say, midecamycin A1 having a hydroxyl group at the 9-position (Medemycin; MDM) [Journal of Antibiotics, 24 (7), 452 (1971)] and midecamycin A3 having a carbonyl group at the 9-position [ibid., 24 (7), 476 (1971)] were orally administered to animals (mice), followed by observing the pharmacokinetics.

Structure (SMILES) | MIC (B. catarrhalis W-0500) [µg/mL] | MIC (B. catarrhalis W-0506) [µg/mL] | MIC (E. coli NIHJ JC-2) [µg/mL] | MIC (E. faecalis W-73) [µg/mL] | MIC (H. influenzae 9334) [µg/mL] | MIC (K. pneumoniae PC1602) [µg/mL] | MIC (M. pneumoniae FH) [µg/mL] | MIC (M. pneumoniae Mac) [µg/mL] | MIC (M. pneumoniae Numata) [µg/mL] | MIC (S. Pneumoniae Type 1) [µg/mL] | MIC (S. Pyogenes Cook) [µg/mL] | MIC (S. aureus 209P JC-1) [µg/mL] | MIC (S. aureus M126) [µg/mL] | MIC (S. aureus M133) [µg/mL] | MIC (S. aureus MS15009/pMS98) [µg/mL] | MIC (S. aureus MS15009/pMS99) [µg/mL] | MIC (S. aureus MS15026) [µg/mL] | MIC (S. aureus MS15027) [µg/mL] | MIC (S. epidermidis ATCC14990) [µg/mL] | further results
CCC(=O)O[C@@H]1CC(=O)O[C@H](C)C/C=C/C=C/C(=O)[C@H](C)C[C@H](CC=O)[C@H](O[C@@H]2O[C@H](C)[C@@H](O[C@H]3C[C@@](C)(OC)[C@@H](OCCC(C)C)[C@H](C)O3)[C@H](N(C)C)[C@H]2O)[C@H]1OC [4"-O-depropionyl-4"-O-isoamyl-3"-O-methylmidecamycin A3] |  |  |  |  |  |  |  |  |  |  |  |  |  |  |  |  |  |  |  | maximum concentration in serum compared with marketed 16-membered macrolide antibiotics [1]: clearly improved; recovery in urine compared with marketed 16-membered macrolide antibiotics [1]: clearly improved; antimicrobial activity compared with MOM [2]: enhanced antimicrobial activity; attack of the mycarose moiety by esterase (esterase): scarcely attacked by esterase
CCCCCCO[C@H]1[C@H](C)O[C@@H](O[C@H]2[C@H](N(C)C)[C@@H](O)[C@H](O[C@H]3[C@@H](CC=O)C[C@@H](C)[C@@H](O)/C=C/C=C/C[C@@H](C)OC(=O)C[C@@H](OC(=O)CC)[C@@H]3OC)O[C@@H]2C)C[C@@]1(C)OC [(5)] | 1.56 (≈ 1.82 µM) | 1.56 (≈ 1.82 µM) | > 100 | 3.13 (≈ 3.66 µM) | 6.25 (≈ 7.3 µM) | > 100 | 1.56 (≈ 1.82 µM) | 0.2 (≈ 0.234 µM) | 0.05 (≈ 0.0584 µM) | 0.2 (≈ 0.234 µM) | 0.2 (≈ 0.234 µM) | 0.39 (≈ 0.456 µM) | > 100 | 1.56 (≈ 1.82 µM) | 0.78 (≈ 0.911 µM) | > 100 | > 100 | 1.56 (≈ 1.82 µM) | 1.56 (≈ 1.82 µM) | MIC (M. luteus ATCC9341; ATCC9341, 20 h): 0.1 µg/mL (≈ 0.117 µM); MIC (M. pneumoniae FH-P24): 0.2 µg/mL (≈ 0.234 µM); MIC (S. pneumoniae IP692; IP692, 20 h): 0.2 µg/mL (≈ 0.234 µM); antimicrobial activities on Gram-positive bacteria and Mycoplasma [3]: strong antimicrobial activities; extent of metabolism (metabolism in plasma): hardly metabolized; degree of loss of the antimicrobial activity in the plasma compared with MOM (M. luteus): lower than that of MOM; duration of antimicrobial activity in rat plasma (M. luteus): extremely long-acting in rat plasma
CCC(=O)O[C@@H]1CC(=O)O[C@H](C)C/C=C/C=C/[C@H](O)[C@H](C)C[C@H](CC=O)[C@H](O[C@@H]2O[C@H](C)[C@@H](O[C@H]3C[C@@](C)(O)[C@@H](OC(=O)CC)[C@H](C)O3)[C@H](N(C)C)[C@H]2O)[C@H]1OC [MDM, midecamycin A1, reference compound] | 3.13 (≈ 3.85 µM) | 1.56 (≈ 1.92 µM) | > 100 | 3.13 (≈ 3.85 µM) | 3.13 (≈ 3.85 µM) | > 100 | 1.56 (≈ 1.92 µM) | 0.1 (≈ 0.123 µM) | 0.05 (≈ 0.0614 µM) | 0.39 (≈ 0.479 µM) | 0.2 (≈ 0.246 µM) | 0.39 (≈ 0.479 µM) | > 100 | 0.78 (≈ 0.958 µM) | 0.39 (≈ 0.479 µM) | > 100 | > 100 | 0.78 (≈ 0.958 µM) | 1.56 (≈ 1.92 µM) | MIC (M. luteus ATCC9341; M. luteus ATCC9341, 37° C., 20 hours): 0.05 µg/mL (≈ 0.0614 µM); MIC (M. pneumoniae FH-P24; M. pneumoniae FH-P24): 0.1 µg/mL (≈ 0.123 µM); MIC (S. pneumoniae IP692; S. pneumoniae IP692, 37° C., 20 hours): 0.39 µg/mL (≈ 0.479 µM); Cmax [4]: 5200 ng/mL; dose excreted at 24 h [5]: < 2%; recovery in urine compared with midecamycin A3 [6]: superior to midecamycin A3; sustained concentration in serum compared with midecamycin A3 [6]: superior to midecamycin A3
